From the NIST ThermoML archive (doi:10.1021/acs.jced.5b00903)
± gives the expanded uncertainty stated by the source.

Test: xn = mol fraction of the nth substance listed
Conditions: surface light scattering

CCCCCCCO [heptan-1-ol] + CC(C)CC(C)(C)C
surface tension liquid-gas [mN/m]
Conditions | x2 = 0 | x2 = 0.1003 | x2 = 0.2002 | x2 = 0.3002 | x2 = 0.3999 | x2 = 0.5 | x2 = 0.6 | x2 = 0.6999 | x2 = 0.7999 | x2 = 0.8999
298.15 K | 26.46 ± 0.3 | 24.78 ± 0.27 | 23.26 ± 0.25 | 22.3 ± 0.24 | 21.46 ± 0.23 | 20.67 ± 0.22 | 20.04 ± 0.21 | 19.59 ± 0.2 | 19.07 ± 0.19 | 18.72 ± 0.19
303.15 K | 25.93 ± 0.29 | 24.13 ± 0.27 | 22.69 ± 0.25 | 21.74 ± 0.23 | 20.9 ± 0.22 | 20.14 ± 0.21 | 19.53 ± 0.2 | 19.1 ± 0.2 | 18.61 ± 0.19 | 18.29 ± 0.18
308.15 K | 25.43 ± 0.28 | 23.63 ± 0.26 | 22.12 ± 0.24 | 21.15 ± 0.23 | 20.32 ± 0.21 | 19.55 ± 0.2 | 18.97 ± 0.2 | 18.55 ± 0.19 | 18.08 ± 0.18 | 17.81 ± 0.18
313.15 K | 24.95 ± 0.28 | 23.15 ± 0.26 | 21.61 ± 0.23 | 20.65 ± 0.22 | 19.83 ± 0.21 | 19.08 ± 0.2 | 18.51 ± 0.19 | 18.13 ± 0.19 | 17.68 ± 0.18 | 17.45 ± 0.18
318.15 K | 24.55 ± 0.27 | 22.72 ± 0.25 | 21.11 ± 0.23 | 20.14 ± 0.22 | 19.3 ± 0.2 | 18.55 ± 0.19 | 17.97 ± 0.19 | 17.59 ± 0.18 | 17.14 ± 0.17 | 16.92 ± 0.17
323.15 K | 24.03 ± 0.27 | 22.13 ± 0.24 | 20.53 ± 0.22 | 19.6 ± 0.21 | 18.77 ± 0.2 | 18 ± 0.19 | 17.48 ± 0.18 | 17.12 ± 0.18 | 16.71 ± 0.17 | 16.53 ± 0.17

CCCO [propan-1-ol] + CC(C)CC(C)(C)C
x2 = 0
Conditions | surface tension liquid-gas [mN/m]
298.15 K | 23.31 ± 0.24
303.15 K | 22.9 ± 0.24
308.15 K | 22.52 ± 0.23
313.15 K | 22.1 ± 0.23
318.15 K | 21.68 ± 0.22
323.15 K | 21.27 ± 0.22

CCCCCO [pentan-1-ol] + CC(C)CC(C)(C)C
surface tension liquid-gas [mN/m]
Conditions | x2 = 0 | x2 = 0.1004 | x2 = 0.2003 | x2 = 0.3 | x2 = 0.4 | x2 = 0.5 | x2 = 0.5999 | x2 = 0.6998 | x2 = 0.7999 | x2 = 0.8996
298.15 K | 25.29 ± 0.28 | 23.81 ± 0.26 | 22.53 ± 0.24 | 21.7 ± 0.23 | 20.97 ± 0.22 | 20.3 ± 0.21 | 19.77 ± 0.2 | 19.38 ± 0.2 | 18.94 ± 0.19 | 18.64 ± 0.19
303.15 K | 24.87 ± 0.28 | 23.28 ± 0.26 | 22.05 ± 0.24 | 21.22 ± 0.23 | 20.49 ± 0.22 | 19.82 ± 0.21 | 19.3 ± 0.2 | 18.93 ± 0.19 | 18.51 ± 0.19 | 18.22 ± 0.18
308.15 K | 24.46 ± 0.27 | 22.83 ± 0.25 | 21.56 ± 0.23 | 20.71 ± 0.22 | 19.98 ± 0.21 | 19.3 ± 0.2 | 18.79 ± 0.19 | 18.42 ± 0.19 | 18.01 ± 0.18 | 17.75 ± 0.18
313.15 K | 24.05 ± 0.27 | 22.42 ± 0.25 | 21.08 ± 0.23 | 20.23 ± 0.22 | 19.51 ± 0.21 | 18.84 ± 0.2 | 18.34 ± 0.19 | 18 ± 0.18 | 17.61 ± 0.18 | 17.38 ± 0.18
318.15 K | 23.65 ± 0.26 | 21.99 ± 0.24 | 20.58 ± 0.22 | 19.71 ± 0.21 | 18.97 ± 0.2 | 18.3 ± 0.19 | 17.79 ± 0.18 | 17.45 ± 0.18 | 17.07 ± 0.17 | 16.85 ± 0.17
323.15 K | 23.21 ± 0.26 | 21.5 ± 0.24 | 20.14 ± 0.22 | 19.26 ± 0.21 | 18.51 ± 0.2 | 17.83 ± 0.19 | 17.34 ± 0.18 | 17.02 ± 0.17 | 16.65 ± 0.17 | 16.43 ± 0.17

CC(C)CC(C)(C)C [2,2,4-trimethylpentane] + CCCCCCO
x1 = 1
Conditions | surface tension liquid-gas [mN/m]
298.15 K | 18.3 ± 0.18
303.15 K | 17.9 ± 0.18
308.15 K | 17.43 ± 0.18
313.15 K | 17.09 ± 0.17
318.15 K | 16.56 ± 0.17
323.15 K | 16.2 ± 0.16

CC(C)CC(C)(C)C [2,2,4-trimethylpentane] + CCCCCO
x1 = 1
Conditions | surface tension liquid-gas [mN/m]
298.15 K | 18.3 ± 0.18
303.15 K | 17.9 ± 0.18
308.15 K | 17.43 ± 0.18
313.15 K | 17.09 ± 0.17
318.15 K | 16.56 ± 0.17
323.15 K | 16.2 ± 0.16

CCCCCCO [hexan-1-ol] + CC(C)CC(C)(C)C
surface tension liquid-gas [mN/m]
Conditions | x2 = 0 | x2 = 0.1001 | x2 = 0.2 | x2 = 0.3001 | x2 = 0.4 | x2 = 0.5 | x2 = 0.6001 | x2 = 0.7001 | x2 = 0.7997 | x2 = 0.8998
298.15 K | 25.56 ± 0.29 | 24.01 ± 0.26 | 22.65 ± 0.25 | 21.78 ± 0.23 | 21.03 ± 0.22 | 20.33 ± 0.21 | 19.78 ± 0.2 | 19.38 ± 0.2 | 18.95 ± 0.19 | 18.65 ± 0.19
303.15 K | 24.95 ± 0.28 | 23.31 ± 0.26 | 22.03 ± 0.24 | 21.17 ± 0.23 | 20.44 ± 0.22 | 19.76 ± 0.21 | 19.25 ± 0.2 | 18.88 ± 0.19 | 18.47 ± 0.19 | 18.22 ± 0.18
308.15 K | 24.65 ± 0.28 | 22.99 ± 0.25 | 21.62 ± 0.23 | 20.74 ± 0.22 | 19.99 ± 0.21 | 19.3 ± 0.2 | 18.77 ± 0.19 | 18.41 ± 0.19 | 18 ± 0.18 | 17.75 ± 0.18
313.15 K | 23.93 ± 0.27 | 22.3 ± 0.25 | 20.9 ± 0.23 | 20.05 ± 0.21 | 19.34 ± 0.2 | 18.69 ± 0.2 | 18.21 ± 0.19 | 17.9 ± 0.18 | 17.54 ± 0.18 | 17.37 ± 0.18
318.15 K | 23.58 ± 0.26 | 21.91 ± 0.24 | 20.45 ± 0.22 | 19.58 ± 0.21 | 18.85 ± 0.2 | 18.17 ± 0.19 | 17.69 ± 0.18 | 17.37 ± 0.18 | 17.01 ± 0.17 | 16.84 ± 0.17
323.15 K | 23.21 ± 0.26 | 21.43 ± 0.24 | 19.99 ± 0.22 | 19.11 ± 0.2 | 18.38 ± 0.19 | 17.71 ± 0.19 | 17.24 ± 0.18 | 16.94 ± 0.17 | 16.6 ± 0.17 | 16.47 ± 0.17
